Patent US9862716B2, “TRKA kinase inhibitors, compositions and methods thereof” (Merck Sharp & Dohme Corp., priority 2014, dated 2018)

biological target: T1, human TrkA receptor (Homo sapiens, UniProt P04629); assay: DiscoverX PathHunter TrkA functional assay (NGF-stimulated U2OS cells); type: cell-based; details: U2OS cells expressing human TrkA-PK, Shc1-EA and p75NTR; compound 1 h, then NGF at ~80% of maximal response for 3 h; luminescence
T1 construct: host or cells: U2OS cells (PathHunter cell line)
T1 sequence (P04629 33-796): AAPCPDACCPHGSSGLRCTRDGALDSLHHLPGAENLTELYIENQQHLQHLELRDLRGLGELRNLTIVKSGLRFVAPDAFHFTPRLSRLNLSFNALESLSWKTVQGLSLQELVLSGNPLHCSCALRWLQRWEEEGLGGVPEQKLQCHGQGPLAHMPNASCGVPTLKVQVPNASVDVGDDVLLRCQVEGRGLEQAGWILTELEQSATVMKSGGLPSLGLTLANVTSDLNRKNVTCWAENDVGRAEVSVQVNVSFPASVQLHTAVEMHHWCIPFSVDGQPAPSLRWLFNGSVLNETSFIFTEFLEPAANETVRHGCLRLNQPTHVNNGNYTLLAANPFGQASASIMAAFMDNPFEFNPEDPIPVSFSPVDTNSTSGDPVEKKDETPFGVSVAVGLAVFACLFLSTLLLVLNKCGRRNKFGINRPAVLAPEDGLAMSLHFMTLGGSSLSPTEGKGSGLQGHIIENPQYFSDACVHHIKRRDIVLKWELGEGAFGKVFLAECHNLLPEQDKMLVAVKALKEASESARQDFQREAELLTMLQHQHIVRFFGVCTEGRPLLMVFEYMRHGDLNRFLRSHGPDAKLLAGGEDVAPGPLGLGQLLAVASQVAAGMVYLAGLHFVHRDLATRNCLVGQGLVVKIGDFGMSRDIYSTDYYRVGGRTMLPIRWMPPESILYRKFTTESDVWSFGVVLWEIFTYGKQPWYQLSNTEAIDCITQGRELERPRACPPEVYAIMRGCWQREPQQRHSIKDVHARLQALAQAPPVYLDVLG
Experimental: TrkA functional activity was measured using a DiscoverX PathHunter assay. In this assay, U2OS cells express the human TrkA receptor as a fusion with the weakly complementing fragment of B-galactosidase, which DiscoverX calls “Prolink (PK)”; additionally, Shc1 is fused with a larger fragment, which is called “Enzyme Acceptor (EA)”. Activation of the TrkA receptor, upon NGF addition, results in the kinase domain being phosphorylated, resulting in subsequent recruitment of Shc1-EA protein. That recruitment results in an active B-galactosidase enzyme that is detected by addition of a chemiluminescent substrate. The human p75^NTR protein was also expressed as a co-receptor for NGF.
All reagents were purchased from DiscoverX, except for the receptor agonists (NGF, BDNF, NT3) which were purchased from Peprotech. Cells were expanded and frozen into cryovials, and stored in the vapor phase of liquid nitrogen, and thawed immediately before use. Thawed cells were added to a 384-well plate at 7500 cells/well, and allowed to incubate overnight. Compound at various concentrations was added the following morning and allowed to incubate on cells for 1 h. Then, NGF was added at a concentration sufficient to elicit ˜80% of a maximal response and allowed to incubate for 3 h at ambient temperature. DiscoverX PathHunter detection reagent was then added and the plate was further incubated for 1 h in the dark. The plate was then read via luminescence on the Perkin Elmer Envision.

Structure (SMILES)	IC50 [nM]
Cc1ccnc(-c2cc(C(=O)Nc3c(-c4ccccc4)nc4cc(C(C)(C)O)ccn34)c(Cl)cc2C(F)(F)F)n1 [Compound 71, 2-chloro-N-[7-(1-hydroxy-1-methylethyl)-2-phenylimidazo[1,2-a]pyridin-3-yl]-5-(4-methylpyrimidin-2-yl)-4-(trifluoromethyl) benzamide]	7.6
Cn1ccc(-c2cc(C(=O)Nc3c(-c4ccccc4)nc4cc(CCN)ccn34)ccc2C(F)(F)F)n1 [Compound 100, N-[7-(2-aminoethyl)-2-phenylimidazo[1,2-a]pyridin-3-yl]-3-(1-methyl-1H-pyrazol-3-yl)-4-(trifluoromethyl) benzamide]	13
O=C(Nc1c(-c2ccccc2)nc2sccn12)c1ccc(C(F)(F)F)cc1F [Compound 2, 2-fluoro-N-(6-phenylimidazo[2,1-b][1,3]thiazol-5-yl)-4-(trifluoromethyl) benzamide]	139
CC(O)c1ccn2c(NC(=O)c3ccc(C(F)(F)F)c(-c4ncccn4)c3)c(-c3ccccc3)nc2c1 (single isomer, unassigned) [Compound 67, (R or S)-N-[7-(1-hydroxyethyl)-2-phenylimidazo[1,2-a]pyridin-3-yl]-3-pyrimidin-2-yl-4-(trifluoromethyl) benzamide]	5.1
CC(O)c1ccn2c(NC(=O)c3ccc(C(F)(F)F)c(-c4ccn(C(F)F)n4)c3)c(-c3ccccc3)nc2c1 (single isomer, unassigned) [Compound 77, (R or S)-3-[1-(difluoromethyl)-1H-pyrazol-3-yl]-N-[7-(1-hydroxyethyl)-2-phenylimidazo[1,2-a]pyridin-3-yl]-4-(trifluoromethyl) benzamide]	4
Cn1ccc(-c2cc(C(=O)Nc3c(-c4ccccc4)nc4scnn34)ccc2C(F)(F)F)n1 [Compound 17, 3-(1-methyl-1H-pyrazol-3-yl)-N-(6-phenylimidazo[2,1-b][1,3,4]thiadiazol-5-yl)-4-(trifluoromethyl) benzamide]	9.2
Cc1coc(-c2cc(C(=O)Nc3c(-c4ccccc4)nc4cc(C(C)O)ccn34)ccc2C(F)(F)F)n1 (single isomer, unassigned) [Compound 61, (R or S)-N-[7-(1-hydroxyethyl)-2-phenylimidazo[1,2-a]pyridin-3-yl]-3-(4-methyl-1,3-oxazol-2-yl)-4-(trifluoromethyl) benzamide]	2.4
Cn1ccc(-c2cc(C(=O)Nc3c(-c4ccccc4)nc4ccccn34)c(F)cc2C(F)(F)F)n1 [Compound 35, 2-fluoro-5-(1-methyl-1H-pyrazol-3-yl)-N-(2-phenylimidazo[1,2-a]pyridin-3-yl)-4-(trifluoromethyl) benzamide]	0.49
Cn1ccc(-c2cc(C(=O)Nc3c(-c4ccccc4)nc4cc(C(=O)N5CCC5)ccn34)ccc2C(F)(F)F)n1 [Compound 29, N-[7-(azetidin-1-ylcarbonyl)-2-phenylimidazo[1,2-a]pyridin-3-yl]-3-(1-methyl-1H-pyrazol-3-yl)-4-(trifluoromethyl) benzamide]	1.4
Cn1ccc(-c2cc(C(=O)Nc3c(-c4ccccc4)nc4cc(C5(O)CC5)ccn34)ccc2C(F)(F)F)n1 [Compound 69, N-[7-(1-hydroxycyclopropyl)-2-phenylimidazo[1,2-a]pyridin-3-yl]-3-(1-methyl-1H-pyrazol-3-yl)-4-(trifluoromethyl) benzamide]	3.4
NC(=O)c1ccc2[nH]c(-c3ccccc3)c(NC(=O)c3cc(-c4ncccn4)c(C(F)(F)F)cc3F)c2c1 [Compound 92, 3-({[2-fluoro-5-pyrimidin-2-yl-4-(trifluoromethyl)phenyl]carbonyl}amino)-2-phenyl-1H-indole-5-carboxamide]	8.7
CC(c1ccn2c(NC(=O)c3ccc(C(F)(F)F)c(-c4ccn(C)n4)c3)c(-c3ccccc3)nc2c1)N(C)C (single isomer, unassigned) [Compound 56, (R or S)-N-{7-[1-(dimethylamino)ethyl]-2-phenylimidazo[1,2-a]pyridin-3-yl}-3-(1-methyl-1H-pyrazol-3-yl)-4-(trifluoromethyl) benzamide]	1
Cn1ccc(-c2cc(C(=O)Nc3c(-c4ccccc4)nn4ccc(C(C)(C)O)cc34)ccc2C(F)(F)F)n1 [Compound 96, N-[5-(1-hydroxy-1-methylethyl)-2-phenylpyrazolo[1,5-a]pyridin-3-yl]-3-(1-methyl-1H-pyrazol-3-yl)-4-(trifluoromethyl) benzamide]	6.7
Cn1ccc(-c2cc(C(=O)Nc3c(-c4ccccc4)nc4ncccn34)ccc2C(F)(F)F)n1 [Compound 3, 3-(1-methyl-1H-pyrazol-3-yl)-N-(2-phenylimidazo[1,2-a]pyrimidin-3-yl)-4-(trifluoromethyl) benzamide]	5.9
Cn1ccc(-c2cc(C(=O)Nc3c(-c4ccccc4)nc4ccc(C(O)CO)cn34)ccc2C(F)(F)F)n1 (single isomer, unassigned) [Compound 52, (R or S)-N-[6-(1,2-dihydroxyethyl)-2-phenylimidazo[1,2-a]pyridin-3-yl]-3-(1-methyl-1H-pyrazol-3-yl)-4-(trifluoromethyl) benzamide]	4.9
CC(C)(O)c1ccn2c(NC(=O)c3ccc(C(F)(F)F)c(-c4ncccn4)c3)c(-c3ccccc3)nc2c1 [Compound 43, N-[7-(1-hydroxy-1-methylethyl)-2-phenylimidazo[1,2-a]pyridin-3-yl]-3-pyrimidin-2-yl-4-(trifluoromethyl) benzamide]	7.9
Cc1ccn(-c2cc(C(=O)Nc3c(-c4ccccc4)nc4cc(C(C)(C)O)ccn34)ccc2C(F)(F)F)n1 [Compound 60, N-[7-(1-hydroxy-1-methylethyl)-2-phenylimidazo[1,2-a]pyridin-3-yl]-3-(3-methyl-1H-pyrazol-1-yl)-4-(trifluoromethyl) benzamide]	14
Cn1ccc(-c2cc(C(=O)Nc3c(-c4ccccn4)nc4ccccn34)ccc2C(F)(F)F)n1 [Compound 5, 3-(1-methyl-1H-pyrazol-3-yl)-N-(2-pyridin-2-ylimidazo[1,2-a]pyridin-3-yl)-4-(trifluoromethyl) benzamide]	12
Cc1coc(-c2cc(C(=O)Nc3c(-c4ccccc4)nc4ccccn34)ccc2C(F)(F)F)n1 [Compound 14, 3-(4-methyl-1,3-oxazol-2-yl)-N-(2-phenylimidazo[1,2-a]pyridin-3-yl)-4-(trifluoromethyl) benzamide]	3.3
Cn1ccc(-c2cc(C(=O)Nc3c(-c4ccccc4)nc4ccccn34)c(C#N)cc2C(F)(F)F)n1 [Compound 33, 2-cyano-5-(1-methyl-1H-pyrazol-3-yl)-N-(2-phenylimidazo[1,2-a]pyridin-3-yl)-4-(trifluoromethyl) benzamide]	532
O=C(Nc1c(-c2ccccc2)[nH]c2ccccc12)c1cc(-c2ncccn2)c(C(F)(F)F)cc1F [Compound 76, 2-fluoro-N-(2-phenyl-1H-indol-3-yl)-5-pyrimidin-2-yl-4-(trifluoromethyl) benzamide]	8.2
C[C@H](O)c1ccn2c(NC(=O)c3ccc(C(F)(F)F)c(-c4ccn(C)n4)c3)c(-c3ccccc3)nc2c1 [Compound 41, N-{7-[(1S)-1-hydroxyethyl]-2-phenylimidazo[1,2-a]pyridin-3-yl}-3-(1-methyl-1H-pyrazol-3-yl)-4-(trifluoromethyl) benzamide]	0.96
Cn1ccc(-c2cc(C(=O)Nc3c(-c4ccccc4)nc4cc(CCNS(C)(=O)=O)ccn34)ccc2C(F)(F)F)n1 [Compound 102, 3-(1-methyl-1H-pyrazol-3-yl)-N-(7-{2-[(methylsulfonyl)amino]ethyl}-2-phenylimidazo[1,2-a]pyridin-3-yl)-4-(trifluoromethyl) benzamide]	4.3
CC(O)c1ccn2c(NC(=O)c3cc(-c4ccn(C)n4)c(C(F)(F)F)cc3F)c(-c3ccccc3)nc2c1 (single isomer, unassigned) [Compound 55, (R or S)-2-fluoro-N-[7-(1-hydroxyethyl)-2-phenylimidazo[1,2-a]pyridin-3-yl]-5-(1-methyl-1H-pyrazol-3-yl)-4-(trifluoromethyl) benzamide]	0.37
Cn1ccc(-c2cc(C(=O)Nc3c(-c4ccccc4)nc4ccc(C(O)C(F)(F)F)cn34)ccc2C(F)(F)F)n1 (single isomer, unassigned) [Compound 66, (R or S)-3-(1-methyl-1H-pyrazol-3-yl)-N-[2-phenyl-6-(2,2,2-trifluoro-1-hydroxyethyl)imidazo[1,2-a]pyridin-3-yl]-4-(trifluoromethyl) benzamide]	4.5
Cn1ccc(-c2cc(C(=O)Nc3c(-c4ccccc4)nc4cc(CO)ccn34)ccc2C(F)(F)F)n1 [Compound 26, N-[7-(hydroxymethyl)-2-phenylimidazo[1,2-a]pyridin-3-yl]-3-(1-methyl-1H-pyrazol-3-yl)-4-(trifluoromethyl) benzamide]	1.4
Cn1ccc(-c2cc(C(=O)Nc3c(-c4ccccc4)nc4c(CO)cccn34)ccc2C(F)(F)F)n1 [Compound 38, N-[8-(hydroxymethyl)-2-phenylimidazo[1,2-a]pyridin-3-yl]-3-(1-methyl-1H-pyrazol-3-yl)-4-(trifluoromethyl) benzamide]	2.4
C[C@@H](O)c1ccn2c(NC(=O)c3cc(-c4ccn(C)n4)c(C(F)(F)CF)cc3F)c(-c3ccccc3)nc2c1 [Compound 115, 2-fluoro-N-{7-[(1R)-1-hydroxyethyl]-2-phenylimidazo[1,2-a]pyridin-3-yl}-5-(1-methyl-1H-pyrazol-3-yl)-4-(1,1,2-trifluoroethyl)benzamide]	3.7
CC(O)c1ccn2nc(-c3ccccc3)c(NC(=O)c3ccc(C(F)(F)F)c(-c4ccn(C)n4)c3)c2c1 (single isomer, unassigned) [Compound 98, (R or S)-N-[5-(1-hydroxyethyl)-2-phenylpyrazolo[1,5-a]pyridin-3-yl]-3-(1-methyl-1H-pyrazol-3-yl)-4-(trifluoromethyl) benzamide]	3.3
Cn1ccc(-c2cc(C(=O)Nc3c(-c4ccccc4)[nH]c4ccc(C(=O)O)cc34)c(F)cc2C(F)(F)F)n1 [Compound 110, 3-({[2-fluoro-5-(1-methyl-1H-pyrazol-3-yl)-4-(trifluoromethyl)phenyl]carbonyl}amino)-2-phenyl-1H-indole-5-carboxylic acid]	3.6
